Measurements reported in patent publication US20190144368A1, “Compounds and compositions for biofilm prevention” (INHIBIO AS, priority 2016, published 2019).
Values joined by “and” are separate entries in the source; they are usually repeats but may differ in a detail not shown here. Equal entries are not always repeated. “Also recorded” adds a separate entry of the source.

What was measured:
[1] = test system: Gram negative bacteria (Salmonella isolates); assay: Biofilm formation in polystyrene microtiter plates (crystal violet, OD595), Gram negative bacteria; format: cell-based, Salmonella ser. Typhimurium, Salmonella ser. Agona; conditions: two days at 20 °C
Description: (§1) All experiments were performed by using sterile 96-wells polystyrene microtiter plates (Nunc, Nuncleon, Roskilde, Denmark) under conditions promoting biofilm formation by the different bacterial genera. The Inhibio compound preparations of the invention; 1,3-cyclohexanedione, 1,4-cyclohexanedione, cyclopentanone, 5-ethylcyclohexane-1,3-dione and 5-methyl-1,3 cyclohexanedione 98% were solved directly in Tryptic Soy Broth (TSB) 1+1 or Liquid Microbiology Broth (LB) broth without NaCl (LB^wo/NaCl) to obtain the test concentrations, i.e. from 1 mg/ml to 10 mg/ml.
(§2) One Salmonella ser. Typhimurium (S. Typhimurium), two Salmonella ser. Agona (S. Agona) and two Escherichia coli (E. coli) isolates were used in these studies. The studies performed using 1,3-cyclohexanedione and 1,4-cyclohexanedione were done on Salmonella isolates only. The studies comparing Menthone to 1,3-cyclohexanedione were using two E. coli strains, E. coli 1242 and E. coli 1153, see FIG. 11. The Salmonella isolates were isolated from Norwegian feed factories except one S. Typhimurium strain which was a culture collection strain (ATCC 14028). The E. coli isolates were of animal origin. All strains were stored at −80° C. in BHI supplemented with 15% glycerine and were recovered on blood agar at 37.0±1.0° C. The bacterial cultures were then transferred into LB broth and incubated statically overnight at 37.0±1.0° C. to obtain an overnight working culture. A total of 30 μl of this suspension was transferred to each well in 96 wells polystyrene microtiter plates (Nunc, Nuncleon, Roskilde, Denmark) in triplets. The wells were containing 100 μl LB^wo/NaCl (bacto-tryptone 10 g/l, yeast extract 5 g/l) with 1,3-cyclohexanedione dissolved in concentration 0 mg/ml, 1 mg/ml and 10 mg/ml in the total amount of broth and 1,4-cyclohexanedione and cyclopentanone at 0 mg/ml and 10 mg/ml. The microtiter plates were incubated statically for two days, at 20±1.0° C. After incubation, OD595 was measured before the plates were gently washed one time with 150 μl tap water. The plates were dried in room temperature before addition of 140 μl 1% crystal violet (Sigma-Aldrich). After 30 minutes incubation in room temperature, the plates were washed three times with tap water before addition of 140 μl ethanol:acetone (70:30 w:w) and incubated for another 10 minutes in room temperature. OD595 was measured in a microplate photometer (Multiscan EX) after the bound dye was dissolved using ethanol:acetone. For each strain, the result was calculated by subtracting the median OD595 of the three parallels of the control (test broth only) from the median OD595 of the three parallels of sample. Further, the averages of the Gram negative strains were calculated. Three independent experiments were performed and the average was evaluated.

[2] = NMR of cyclohexane-1,3-dione in aqueous solution (keto-enol tautomerism); format: physicochemical; conditions: NMR-data
Description: In one embodiment, the compounds of the composition are able to undergo keto-enol tautomerism. Particularly 1,3-cyclodions, such as 1,3-cyclohexanediones, particularly such diones wherein neither or maximum one substituents are present in the C-2 position, have been found favourable as they can undergo keto-enol tautomerism. NMR-data of cyclohexane-1,3-dione support that in aqueous solution this compound exists in a highly enolised form where electrons are delocalised between the C-1-oxygen/C-1, C-2 and C-3/C-3-oxygen thereby rendering the C-2 methylene protons relatively acidic. […] It is believed that the acidity of the C-2 protons affect the solubility of the compound, providing a higher solubility than e.g. similar 1,4-carbocyclic compounds.

[3] = test system: E. coli 1242 and E. coli 1153; assay: Biofilm formation in microtiter plates, comparison of 1,3-cyclohexanedione and menthone; format: cell-based, Escherichia coli; conditions: two values, one per strain (E. coli 1242, E. coli 1153)
Description: as §1
as §2, with “A total of 30 μl of this suspension was transferred to each well in 96 wells polystyrene microtiter plates (Nunc, Nuncleon, Roskilde, Denmark) in triplets. The wells were containing 100 μl LB^wo/NaCl (bacto-tryptone 10 g/l, yeast extract 5 g/l) with 1,3-cyclohexanedione dissolved in concentration 0 mg/ml, 1 mg/ml and 10 mg/ml in the total amount of broth and 1,4-cyclohexanedione and cyclopentanone at 0 mg/ml and 10 mg/ml. The microtiter plates were incubated statically for two days, at 20±1.0° C.” left out, “The plates were dried in room temperature before addition of 140 μl 1% crystal violet (Sigma-Aldrich). After 30 minutes incubation in room temperature, the plates were washed three times with tap water before addition of 140 μl ethanol:acetone (70:30 w:w) and incubated for another 10 minutes in room temperature.” left out

[4] = test system: S. Agona and E. coli (one strain each); assay: Biofilm formed on stainless steel coupons by Gram negative bacteria (CFU count); format: cell-based, Salmonella ser. Agona, Escherichia coli; conditions: 20 °C for 72 hours
Description: One strain of S. Agona (FIG. 10) and one strain of E. coli (FIG. 10) was used in this study. The study was performed using 1,3-cyclohexanedione in a concentration of 1 and 10 mg/ml. The strain was stored at −80° C. in BHI (Difco, BD, Franklin Lakes, N.J., USA) supplemented with 15% glycerine (Merck KGaA, Darmstadt, Germany) and was recovered on blood agar at 37.0±1.0° C. The bacterial culture was then transferred into LB broth and was incubated statically overnight at 37.0±1.0° C. to obtain an overnight working culture. The Inhibio compound was dissolved in LB^wo/NaCl to a concentration of 10 mg/ml and then further diluted to a concentration of 1 mg/ml. 10 ml of each solution was added to a 50 ml Falcon tube and, in a third tube, only LB broth^wo/NaCl was added as a control. […]
Following incubation, each coupon was dipped three times in three different tubes containing physiological saline and further transferred to a tube containing 5 ml cold physiological saline as well as 20 sterile silica glass beads. […] After incubation, the bacterial colonies were counted. […]
The Colony forming units (CFU) on the plate was calculated into CFU in biofilm by multiplying with a factor for each dilution. Further, the log value was calculated of the average of each dilution.

O=C1CCCC(=O)C1 [1,3-cyclohexanedione]
decrease in biofilm formation, percentage of the control ([1]; 1 mg/ml): 70%
decrease in biofilm formation, percentage of the control ([1]; 10 mg/ml): 87%
stability of tautomers [2]: stable at least over one day
decrease in biofilm formation ([3]; 1 mg/ml): 46% and 70%
decrease in biofilm formation ([3]; 10 mg/ml): 97% and 100%
CFU in biofilm on stainless steel coupon ([4]; 1 mg/ml): decrease in biofilm formation; also recorded: significant decrease
CFU in biofilm on stainless steel coupon ([4]; 10 mg/ml): could not detect any colony forming units; also recorded: no bacteria found in the biofilm
